This note sets out measurements from article PMC3604699 (Biochemistry, 2011).

This assay concerns the target sortase A (SrtA) (Staphylococcus aureus, UniProt Q2FV99). Nature of the assay: HPLC transpeptidation assay, time-dependent inactivation kinetics. The settings on record: read-out: KI. Type of assay: biochemical.

Chain of sortase A (SrtA) (Q2FV99 25-206): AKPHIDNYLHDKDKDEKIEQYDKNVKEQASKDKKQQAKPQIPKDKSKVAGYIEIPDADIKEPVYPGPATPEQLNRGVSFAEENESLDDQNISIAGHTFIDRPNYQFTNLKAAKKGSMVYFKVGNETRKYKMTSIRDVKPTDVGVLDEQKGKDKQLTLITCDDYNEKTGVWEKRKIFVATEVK

Take `OCl` [NaOCl]: the KI (inactivation) was 11.8 ± 3.1 mM.
